22 compounds from PubChem BioAssay AID256 (DTP/NCI, 2004) can be followed below.

The subject of this experiment is CD2F1 mice, L1210 leukemia ip, survival T/C. The experiment can be described thus: NCI In Vivo Anticancer Drug Screen. Data for tumor model L1210 Leukemia (intraperitoneal) in CD2F1 (CDF1) mice. To be noted: higher = longer survival. Put shortly: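 Antitumor effect is scored in animals hosting a serially transplanted tumor. Values compare compound-dosed animals against vehicle-only controls as a simple quotient.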

The mark [1] stands for this setting: endpoint: mean survival time, dose: 100.0 mg/kg/injection, schedule: Q01DX001 (ip), vehicle: saline with Tween-80.
The mark [2] stands for this setting: endpoint: mean survival time, dose: 200.0 mg/kg/injection, schedule: Q01DX001 (ip), vehicle: saline with Tween-80.
Setting [3] is: endpoint: mean survival time, dose: 400.0 mg/kg/injection, schedule: Q01DX001 (ip), vehicle: saline with Tween-80.
Setting [4] is: endpoint: mean survival time, dose: 25.0 mg/kg/injection, schedule: Q04DX003 (ip), vehicle: saline with Tween-80.
Where [5] appears, read: endpoint: mean survival time, dose: 50.0 mg/kg/injection, schedule: Q04DX003 (ip), vehicle: saline with Tween-80.
Where [6] appears, read: endpoint: mean survival time, dose: 12.5 mg/kg/injection, schedule: Q01DX005 (ip), vehicle: water.
Setting [7] is: endpoint: mean survival time, dose: 25.0 mg/kg/injection, schedule: Q01DX005 (ip), vehicle: water.
Where [8] appears, read: endpoint: mean survival time, dose: 50.0 mg/kg/injection, schedule: Q01DX005 (ip), vehicle: water.
Where [9] appears, read: endpoint: mean survival time, dose: 100.0 mg/kg/injection, schedule: Q01DX005 (ip), vehicle: water.
Where [10] appears, read: endpoint: mean survival time, dose: 100.0 mg/kg/injection, schedule: Q01DX009 (ip), vehicle: saline with Tween-80.
[11] abbreviates: endpoint: mean survival time, dose: 100.0 mg/kg/injection, schedule: Q04DX003 (ip), vehicle: saline with Tween-80.
Setting [12] is: endpoint: mean survival time, dose: 200.0 mg/kg/injection, schedule: Q01DX009 (ip), vehicle: saline with Tween-80.
[13] abbreviates: endpoint: mean survival time, dose: 200.0 mg/kg/injection, schedule: Q04DX003 (ip), vehicle: saline with Tween-80.
The mark [14] stands for this setting: endpoint: mean survival time, dose: 400.0 mg/kg/injection, schedule: Q04DX003 (ip), vehicle: saline with Tween-80.
Setting [15] is: endpoint: mean survival time, dose: 50.0 mg/kg/injection, schedule: Q01DX009 (ip), vehicle: saline with Tween-80.

Values joined by “and” are separate entries in the source; they are usually repeats but may differ in a detail not shown here. Equal entries are not always repeated. Inconclusive results and toxic doses are left out.

As for `CC(=O)OCC1OC(n2nc(CBr)cc2C(N)=O)C(OC(C)=O)C(OC(C)=O)C1OC(C)=O` (stereo not given), the T/C (endpoint: mean survival time, dose: 12.5 mg/kg/injection, schedule: Q01DX005 (ip), vehicle: distilled water + Tween-80) was 104 % of control; the T/C (endpoint: mean survival time, dose: 25.0 mg/kg/injection, schedule: Q01DX005 (ip), vehicle: distilled water + Tween-80) is 96 % of control; the T/C (endpoint: mean survival time, dose: 50.0 mg/kg/injection, schedule: Q01DX005 (ip), vehicle: distilled water + Tween-80) is 98 % of control; the T/C (endpoint: mean survival time, dose: 100.0 mg/kg/injection, schedule: Q01DX005 (ip), vehicle: distilled water + Tween-80) was 92 % of control; the T/C (endpoint: mean survival time, dose: 200.0 mg/kg/injection, schedule: Q01DX005 (ip), vehicle: distilled water + Tween-80) is 93 % of control.
Consider `COc1ccc2ccccc2c1-c1c(OC)ccc2ccccc12`, for which the T/C was 100 % of control under setting [1], 103 % of control under setting [2] and 100 % of control under setting [3].
For the compound `CCCSc1ncnc2nc[nH]c12`, the T/C is, setting by setting: (endpoint: median survival time, dose: 31.25 mg/kg/injection, schedule: Q01DX009 (ip), vehicle: saline) 100 % of control; (endpoint: median survival time, dose: 62.5 mg/kg/injection, schedule: Q01DX009 (ip), vehicle: saline) 114 % of control and 111 % of control; (endpoint: median survival time, dose: 125.0 mg/kg/injection, schedule: Q01DX009 (ip), vehicle: saline) 121 % of control and 111 % of control; (endpoint: median survival time, dose: 250.0 mg/kg/injection, schedule: Q01DX009 (ip), vehicle: saline) 122 % of control.
In the case of `O=C1OC(=O)C2C1C1(c3ccccc3)OC2(c2ccccc2)c2ccccc21` (stereo not given), the T/C was 100 % of control (endpoint: mean survival time, dose: 50.0 mg/kg/injection, schedule: Q01DX001 (ip), vehicle: saline with Tween-80); 100 % of control under setting [1]; 100 % of control under setting [2].
For the compound `CCC1(O)C(=O)OCc2c1cc1n(c2=O)Cc2cc3ccc(C)cc3nc2-1` (stereo not given), under “endpoint: median survival time, dose: 10.0 mg/kg/injection, schedule: Q04DX002 (ip), vehicle: saline with Tween-80”, the T/C is 108 % of control.
In the case of `O=C(Nc1ccccn1)C(O)C(O)C(O)C(O)CO` (stereo not given), the T/C (endpoint: mean survival time, dose: 12.5 mg/kg/injection, schedule: Q04DX003 (ip), vehicle: saline with Tween-80) is 96 % of control; the T/C under setting [4] is 101 % of control; the T/C under setting [5] was 89 % of control.
Consider `NC(=O)c1n[nH]c(C2OC(COP(=O)(O)O)C(O)C2O)n1` (stereo not given), for which the T/C under setting [6] is 100 % of control; the T/C under setting [7] was 100 % of control; the T/C under setting [8] is 96 % of control; the T/C under setting [9] is 97 % of control; the T/C (endpoint: mean survival time, dose: 200.0 mg/kg/injection, schedule: Q01DX005 (ip), vehicle: water) is 96 % of control.
Turning to `COc1cc(NS(C)(=O)=O)ccc1Nc1c2ccc([N+](=O)[O-])cc2nc2c(C)cccc12`, the T/C is, setting by setting: (endpoint: mean survival time, dose: 3.75 mg/kg/injection, schedule: Q04DX003 (ip), vehicle: saline with Tween-80) 151 % of control; (endpoint: mean survival time, dose: 7.5 mg/kg/injection, schedule: Q01DX009 (ip), vehicle: saline with Tween-80) 111 % of control; (endpoint: mean survival time, dose: 7.5 mg/kg/injection, schedule: Q04DX003 (ip), vehicle: saline with Tween-80) 164 % of control; (endpoint: mean survival time, dose: 15.0 mg/kg/injection, schedule: Q04DX003 (ip), vehicle: saline with Tween-80) 235 % of control; (endpoint: mean survival time, dose: 37.5 mg/kg/injection, schedule: Q04DX003 (ip), vehicle: saline) 109 % of control; (endpoint: mean survival time, dose: 75.0 mg/kg/injection, schedule: Q04DX003 (ip), vehicle: saline) 86 % of control.
With `CCCC(=O)Nc1ncnc2c1nc(SCc1ccccc1)n2C1OC2COP(=O)(O)OC2C1OC(=O)CCC` (stereo not given), the T/C reads like this: (endpoint: mean survival time, dose: 6.25 mg/kg/injection, schedule: Q01DX005 (ip), vehicle: water) 101 % of control; under setting [6], 93 % of control; under setting [7], 93 % of control; under setting [8], 101 % of control; under setting [9], 101 % of control.
Take `COC(=O)C(Br)CCC(Br)C(=O)OC` (stereo not given): the T/C reads like this: under setting [5], 94 % of control; under setting [10], 95 % of control; under setting [11], 94 % of control; under setting [12], 103 % of control; under setting [13], 94 % of control.
Consider `CCCCCCCCCCCCCCCCS(=O)(=O)CCO`, for which the T/C is 90 % of control under setting [11], 88 % of control under setting [13] and 90 % of control under setting [14].
On to `O=C(O)CSc1nc(-c2ccccc2)c(-c2ccccc2)n1-c1ccccn1`, for which the T/C by setting is: (endpoint: mean survival time, dose: 12.5 mg/kg/injection, schedule: Q01DX009 (ip), vehicle: water) 96 % of control and 97 % of control; (endpoint: mean survival time, dose: 25.0 mg/kg/injection, schedule: Q01DX009 (ip), vehicle: water) 91 % of control and 100 % of control; (endpoint: mean survival time, dose: 50.0 mg/kg/injection, schedule: Q01DX009 (ip), vehicle: water) 96 % of control and 102 % of control; (endpoint: mean survival time, dose: 100.0 mg/kg/injection, schedule: Q01DX009 (ip), vehicle: water) 100 % of control and 102 % of control.
In the case of `Cc1cc(C)nc(C)c1.[Cl-].[Cl-].[Cl-].[Cl-].[Pt+2]`, the T/C by setting is: under setting [4], 98 % of control; under setting [5], 101 % of control; under setting [11], 103 % of control.
With `O=C(Nc1cccc(Cl)c1)c1ccc(C(=O)Nc2cccc(Cl)c2)cc1`, the T/C (endpoint: mean survival time, dose: 75.0 mg/kg/injection, schedule: Q01DX001 (ip), vehicle: saline) was 100 % of control; the T/C (endpoint: mean survival time, dose: 150.0 mg/kg/injection, schedule: Q01DX001 (ip), vehicle: saline) was 98 % of control; the T/C (endpoint: mean survival time, dose: 300.0 mg/kg/injection, schedule: Q01DX001 (ip), vehicle: saline) is 102 % of control.
Turning to `CC1=NN(c2ccccc2)C(=O)CC1`, the T/C by setting is: under setting [11], 101 % of control; under setting [13], 101 % of control; under setting [14], 103 % of control.
Consider `CCN(CC)n1c(=O)[nH]n(CC)c1=O`, for which the T/C reads like this: under setting [1], 101 % of control; (endpoint: mean survival time, dose: 100.0 mg/kg/injection, schedule: Q04DX002 (ip), vehicle: saline with Tween-80) 101 % of control; under setting [2], 97 % of control; (endpoint: mean survival time, dose: 200.0 mg/kg/injection, schedule: Q04DX002 (ip), vehicle: saline with Tween-80) 93 % of control; under setting [3], 100 % of control; (endpoint: mean survival time, dose: 400.0 mg/kg/injection, schedule: Q04DX002 (ip), vehicle: saline with Tween-80) 101 % of control.
Turning to `NC(=S)c1csc(CCNC(=O)c2ccccc2)n1`, the T/C is, setting by setting: under setting [1], 100 % of control; under setting [10], 98 % of control; (endpoint: mean survival time, dose: 100.0 mg/kg/injection, schedule: Q04DX003 (ip), vehicle: saline) 96 % of control; under setting [2], 97 % of control; under setting [12], 98 % of control; (endpoint: mean survival time, dose: 200.0 mg/kg/injection, schedule: Q04DX003 (ip), vehicle: saline) 89 % of control. Besides, the T/C runs as follows: under setting [3], 97 % of control; (endpoint: mean survival time, dose: 400.0 mg/kg/injection, schedule: Q01DX009 (ip), vehicle: saline with Tween-80) 100 % of control; (endpoint: mean survival time, dose: 400.0 mg/kg/injection, schedule: Q04DX003 (ip), vehicle: saline) 93 % of control.
In the case of `O=C1C(c2ccccc2)=C(c2ccccc2)c2ccc(Cl)cc21`, the T/C reads like this: under setting [1], 106 % of control; under setting [2], 98 % of control; under setting [3], 97 % of control.
For `C/C([O-])=N\[N+](C)(C)Cc1ccccc1`, the T/C is, setting by setting: under setting [1], 95 % of control; under setting [2], 98 % of control; under setting [3], 102 % of control.
Regarding `[N-]=[N+]=Nc1cc(NC(=O)c2ccccc2)ccc1NC(=O)c1ccccc1`, the T/C was 101 % of control under setting [15], 96 % of control under setting [10] and 104 % of control under setting [12].
Regarding `O=C(CCCN1CCC(O)CC1)c1ccccc1`, the T/C was 88 % of control under setting [15] and 94 % of control under setting [10].
With `CC(=O)Cc1ccc(C)cc1`, the T/C runs as follows: under setting [11], 97 % of control; under setting [13], 93 % of control; under setting [14], 104 % of control.
